Article PMC11062922 (Nature Chemical Biology, 2023)
Like-named read-outs stand apart in the source and are kept apart here.

Experiments:
GAK = target: T1, GAK (Homo sapiens, UniProt O14976); test: Kinobeads two-dose competition binding: GAK; settings: for CATDS: target GAK
T1 construct: endogenous in cells
T1 sequence (O14976 1-1311): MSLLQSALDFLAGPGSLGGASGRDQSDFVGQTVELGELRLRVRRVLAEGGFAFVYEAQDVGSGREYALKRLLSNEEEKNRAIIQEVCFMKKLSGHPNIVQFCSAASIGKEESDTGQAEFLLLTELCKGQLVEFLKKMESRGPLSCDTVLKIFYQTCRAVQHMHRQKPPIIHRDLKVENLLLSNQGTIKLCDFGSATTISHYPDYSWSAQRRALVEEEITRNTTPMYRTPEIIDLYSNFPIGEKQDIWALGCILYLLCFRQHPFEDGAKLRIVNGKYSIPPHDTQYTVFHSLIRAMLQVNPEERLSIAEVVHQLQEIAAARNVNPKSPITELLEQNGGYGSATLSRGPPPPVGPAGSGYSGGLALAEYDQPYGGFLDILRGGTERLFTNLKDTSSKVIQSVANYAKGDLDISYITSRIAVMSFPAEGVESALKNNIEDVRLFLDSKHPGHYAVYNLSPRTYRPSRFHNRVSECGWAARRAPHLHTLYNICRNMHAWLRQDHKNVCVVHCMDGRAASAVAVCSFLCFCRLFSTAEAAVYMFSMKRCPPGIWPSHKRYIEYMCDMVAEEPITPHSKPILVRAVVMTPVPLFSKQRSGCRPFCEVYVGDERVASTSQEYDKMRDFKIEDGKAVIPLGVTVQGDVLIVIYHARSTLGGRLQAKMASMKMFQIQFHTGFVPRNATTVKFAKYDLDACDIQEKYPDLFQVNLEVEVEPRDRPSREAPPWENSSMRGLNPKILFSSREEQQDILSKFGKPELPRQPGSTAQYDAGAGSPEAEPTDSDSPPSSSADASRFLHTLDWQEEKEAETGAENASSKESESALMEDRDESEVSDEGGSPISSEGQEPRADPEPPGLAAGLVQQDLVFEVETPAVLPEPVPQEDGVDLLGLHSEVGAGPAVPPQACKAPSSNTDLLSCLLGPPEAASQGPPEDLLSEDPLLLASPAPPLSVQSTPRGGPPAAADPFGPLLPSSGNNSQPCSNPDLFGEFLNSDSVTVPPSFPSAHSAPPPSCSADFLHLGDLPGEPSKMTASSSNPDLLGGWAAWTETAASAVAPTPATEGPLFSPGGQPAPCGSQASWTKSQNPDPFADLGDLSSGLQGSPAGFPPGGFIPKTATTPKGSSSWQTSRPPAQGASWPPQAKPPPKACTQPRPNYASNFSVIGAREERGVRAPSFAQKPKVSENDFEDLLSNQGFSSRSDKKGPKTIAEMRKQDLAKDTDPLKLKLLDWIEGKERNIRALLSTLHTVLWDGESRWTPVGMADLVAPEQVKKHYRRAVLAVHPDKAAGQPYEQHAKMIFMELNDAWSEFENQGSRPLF
Description: (§1) Briefly, Kinobeads comprise seven broad-spectrum small molecule kinase inhibitors immobilized on Sepharose beads. […]. Compounds of interest are set to compete for target protein binding with Kinobeads in the lysate and the amount of a given protein bound to Kinobeads in the presence of a compound can be quantified relative to a dimethylsulfoxide (DMSO) vehicle control by label-free mass spectrometry. This assay measures the physical interaction of a compound with thousands of endogenous proteins in parallel and, when systematically increasing the concentration of competitor, enables the calculation of an apparent interaction constant ( Kdapp ) for each compound and protein.
(§2) Kinobeads pulldown experiments were performed as described previously[13],[14],[17] with minor modification. […] The protein concentration was adjusted to 5 mg ml^−1. Kinase inhibitors were spiked into 0.5 ml of cell lysate at final concentrations of 100 and 1,000 nM (or DMSO, 0.3, 1, 3, 10, 30, 100, 300 and 1,000 nM for full dose experiments). […] Lysates were incubated for 45 min at 4 °C. Subsequently, lysates were incubated with Kinobeads ε (17.5 µl of settled beads) for 30 min at 4 °C. To assess the degree of protein depletion from the lysates by Kinobeads, the flow through of the DMSO control was recovered for a pulldown of pulldown experiment where the lysate was incubated a second time with fresh Kinobeads. Beads were washed in three steps with buffer containing 0.4%, 0.2% and no IGEPAL. Bound proteins were reduced with 50 mM DTT in 8 M Urea, 40 mM Tris-HCl pH 7.4 for 30 min at room temperature. After alkylation with 55 mM chloroacetamide, the urea concentration was reduced to 1–2 M and proteins were digested with trypsin. Acidified peptides were desalted and concentrated using SepPak tC18 µEluation plates (Waters). Samples were frozen, dried by vacuum centrifugation and stored at −20 °C.
(§3) Each kinase inhibitor was processed together with all DMSO controls of the same plate. Additionally, each search was supplemented with five high quality DMSO controls for consistent peptide identification and protein grouping. The resultant file (proteinGroups.txt) was used for subsequent filtering, normalization, data visualization and target annotation that was automatically performed by a data processing pipeline built in house that used R (including the ‘drc’ and ‘heatmap’ packages). First, reverse hits, potential contaminants and not quantified proteins in the DMSO control samples were discarded. Protein raw and label-free quantification intensities were normalized to the median DMSO control intensity to obtain relative residual binding intensities for each protein group at every inhibitor concentration and standard deviations of the DMSO control intensity were calculated. IC50 values were estimated based on the following equation IC50=I×100−inhibition/inhibition where [I] is the inhibitor concentration that was used for IC50 calculation and ‘inhibition’ the relative residual binding intensity. […]. Estimated Kdapp values were then calculated by multiplying the estimated IC50 values with a protein-dependent correction factor that was limited to a maximum value of one. The correction factor accounts for the depletion of a target protein from the lysate by Kinobeads. The depletion can be measured by the ratio of the amount of protein captured in two consecutive pulldowns of the same DMSO control lysate. In this study, correction factors were determined in separate experiments using the same lysate mixture and the same bead batch. Correction factors were set to the median of all correction factors. Targets of kinase inhibitors were annotated using the previously published random forest classifier. A training data set was annotated manually. […]

CSNK2A2 = CSNK2A2 (Homo sapiens, UniProt P19784); test: Kinobeads two-dose competition binding: CSNK2A2; set-up: to maximize the representation of endogenous proteins; endogenous in cells; settings: for CATDS: target CSNK2A2
Description: as §1, §2, §3

AAK1 = target: T2, AAK1 (Homo sapiens, UniProt Q2M2I8); test: Kinobeads two-dose competition binding: AAK1;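 further: kinobeads competition pulldown from cell lysate, compound preincubated 45 min at 4 °C, bead-bound protein measured by label-free mass spectrometry against DMSO vehicle control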
T2 construct: to maximize the representation of endogenous proteins; endogenous in cells

ATM = target: T3, ATM (Homo sapiens, UniProt Q13315); test: Kinobeads two-dose competition binding: ATM; settings: for CATDS: target ATM
T3 construct: endogenous in cells
Description: as §1, §2, §3

ABL2 = target: T4, ABL2 (Homo sapiens, UniProt P42684); test: Kinobeads two-dose competition binding: ABL2; settings: sheet CATDS matrix 2; Gene Name ABL2
T4 construct: endogenous in cells

[1] = sheet CATDS matrix 2, Gene Name AAK1

SMILES	CATDS (GAK)	CATDS (CSNK2A2)	CATDS (AAK1; [1])	CATDS (AAK1; target AAK1)	CATDS (ATM)	CATDS (ABL2)	further results
Nc1ncnc2[nH]c(-c3ccccc3)nc12 [AH5015_KCGS]	0.09213	0	0	0	0	0	potency estimated from few doses (CSNK2A2; Kinobeads two-dose screen (binding), read-out: Kdapp CSNK2A2): > 1000 nM
CCN1CCN(Cc2ccc(Nc3ncc(F)c(-c4cc(F)c5nc(C)n(C(C)C)c5c4)n3)nc2)CC1 [Abemaciclib]	0	0.06221	0.04695	0.04695	0	0	
CN(C)C/C=C/C(=O)Nc1cc2c(Nc3ccc(F)c(Cl)c3)ncnc2cc1O[C@H]1CCOC1 [Afatinib]	0	0			0		
CCc1cc2c(cc1N1CCC(N3CCOCC3)CC1)C(C)(C)c1[nH]c3cc(C#N)ccc3c1C2=O [Alectinib]	0.6004	0	0	0	0	0	
N#CC1(c2ccc(NC(=O)c3cccnc3NCc3ccncc3)cc2)CCCC1 [Apatinib]	0	0	0	0	0	0	
C#Cc1cccc(Nc2ncnc3cc(OC)c(OC4CCN(C)CC4)cc23)c1 [BI00007366]			0			0	potency estimated from few doses (GAK; Kinobeads two-dose, Drugmatrix - all 2, read-out: apparent Kd GAK): 634 nM
CC(C)N1CC(=O)N(C)c2cnc(Nc3cccc(S(=O)(=O)CCN4CCOCC4)c3)nc21 [BI00009348]			0.07467			0	potency estimated from few doses (AAK1; sheet "Kinobeads Drugmatrix - all", unit inferred, same values below 1000 recur in sheet "nanomolar", read-out: Kinobeads Drugmatrix - all: apparent Kd, AAK1): 662 nM; potency estimated from few doses (ATM; Kinobeads two-dose, Drugmatrix - all 2, read-out: apparent Kd ATM): 112 nM
COc1cc(Nc2ncc3c(C)nc(-c4cc5ccccc5[nH]4)n3n2)cc(OC)c1OC [GW869516X]							potency estimated from few doses (CSNK2A2; CSNK2A2, read-out: Kinobeads Data): 56 nM
C[C@]12O[C@H](C[C@]1(O)CO)n1c3ccccc3c3c4c(c5c6ccccc6n2c5c31)CNC4=O [Lestaurtinib]							potency estimated from few doses (GAK; read-out: Lestaurtinib Drugmatrix value, Gene Name GAK): 577 nM; potency estimated from few doses (CSNK2A2; read-out: Lestaurtinib Drugmatrix value, Gene Name CSNK2A2): 415 nM
